Earlier results as cited in US9775828B2, “Pharmaceutical composition with increased solubility by using saccharin” (University-Industry Foundation, Yonsei University, priority 2014, dated 2017).

Settings: when administered to the oral cavity and the nasal cavity

bioavailability: about 40%
SMILES: CN(C)CCc1c[nH]c2ccc(C[C@H]3COC(=O)N3)cc12 [Zolmitriptan, (S)-4-{{3-[2-(dimethylaminoethyl)]-1H-indol-5-1}methyl}-2-oxazolidinone]
